Source: patent US11896594B2, “Palatable antiparasitic formulations” (Zoetis Services LLC, priority 2018, dated 2024)
Several values for one entry are separate records, joined by “and”; a condition that tells them apart may be missing. Equal values may be shown once.

System: D. immitis
Assay: Prevention of heartworm disease in dogs
Assay type: in vivo
Conditions: in vivo, po

CO/N=C1\C[C@]2(C[C@@H]3C[C@@H](C/C=C(\C)C[C@@H](C)/C=C/C=C4\CO[C@@H]5[C@H](O)C(C)=C[C@@H](C(=O)O3)[C@]45O)O2)O[C@H](/C(C)=C/C(C)C)[C@H]1C [moxidectin]
rate of efficacy against ML-resistant D. immitis isolate: 98.8% and 99.5%
